The subject of this assay is HCT 116 cell line. Nature of the assay: Cell inhibition assay (WST-1 proliferation), HCT-116. In kind it is cell-based. The note with it: Homo sapiens, 72 hrs incubation, read-out: Inhibitor Activity vs HCT 116 cell line. On the procedure: Cells were seeded in 96W tissue culture plates (1 well=30 mm^2) in 50 μl of the appropriate culture medium (see below). Seeding densities were cell-line dependent: HCT-116=1000 cells per well, Hut-78=2250 cells per well, U937 cells=2000 cells per well. 24 hrs later 50 μL of the compound prepared in the same medium was added as 4 fold dilutions to give final concentrations in the range 0.15 nM-2500 nM (n=6 for each concentration). The plates were then incubated at 37° C., 5% CO2 for 72 hrs. Cell proliferation was assessed using WST-1 (a metabolic indicator dye, Roche Cat no. 1 644 807) according to the manufacturers instructions. The results were calculated as percentage of vehicle response and IC50 values represent the concentration of compound that inhibited the vehicle response by 50%.
HCT-116 Culture Medium—Dulbeccos MEM (Sigma D6546) plus 10% heat inactivated fetal calf serum (Hyclone SH30071 Thermo Fischer Scientific) containing 2 mM Glutamine (Sigma cat no G-7513) and 50 U/mL Penicillin and Streptomycin Sulphate (Sigma Cat no P-0781).
(In general: Formazan colour is commonly taken as a measure of viable cells.)

pIC50: −log10 of the molar value.

Consider `CC[C@@H]1C(=O)N(C)c2cnc(Nc3ccc(C(=O)NC4CCN(CC[C@](C)(N)C(=O)OC)CC4)cc3OC)nc2N1C1CCCC1` [Example 1, Methyl 4-{4-[(4-{[(7R)-8-cyclopentyl-7-ethyl-5-methyl-6-oxo-5,6,7,8-tetrahydropteridin-2-yl]amino}-3-methoxybenzoyl)amino]piperidin-1-yl}isovalinate], for which the pIC50 was 6.30 to 7.00.
